Laboratory results: article doi:10.1101/2025.09.24.678246 (bioRxiv, 2025)
Values after ≈ are worked out from the molar mass of the structure shown. Values joined by “and” are separate entries in the source; they are usually repeats but may differ in a detail not shown here. Equal entries are not always repeated. Where two headings read alike, the source gives them in different places.

Key:
BioA = BioA (Mycobacterium tuberculosis, UniProt P9WQ81); assay: BioA inhibition assay (coupled BioA/BioD fluorescence displacement, IC50); assay type: biochemical; details: 50 nM BioA
Sequence of BioA (P9WQ81 whole entry, looked up): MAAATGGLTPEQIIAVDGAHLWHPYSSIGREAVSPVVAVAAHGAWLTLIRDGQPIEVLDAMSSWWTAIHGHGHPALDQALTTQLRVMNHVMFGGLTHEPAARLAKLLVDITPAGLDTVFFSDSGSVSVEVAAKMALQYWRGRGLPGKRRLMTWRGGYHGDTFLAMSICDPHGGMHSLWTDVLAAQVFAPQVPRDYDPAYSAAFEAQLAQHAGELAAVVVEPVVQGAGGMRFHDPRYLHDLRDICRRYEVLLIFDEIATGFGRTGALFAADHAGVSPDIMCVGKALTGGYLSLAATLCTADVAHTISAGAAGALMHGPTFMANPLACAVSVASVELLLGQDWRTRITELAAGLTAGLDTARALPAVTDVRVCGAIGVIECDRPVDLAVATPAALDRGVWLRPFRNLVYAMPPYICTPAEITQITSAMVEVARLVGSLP

in vivo = details: female, CD-1, mouse; for Vd / clearance / half-life: iv; for AUC(0-inf) / bioavailability: po, 25 mg/kg
Mtb H37Rv [1] = assay: microbe, parasite or virus in culture; assay type: cell-based, Mycobacterium tuberculosis; details: biotin-free medium; for MIC50: Mycobacterium tuberculosis, H37RV
Mtb H37Rv [2] = assay: C48 biotin deficient TB efficacy study; assay type: in vivo, BALB/c mice; details: 25mg/kg
M. bovis 0AF2122 = assay: microbe, parasite or virus in culture; assay type: cell-based; details: Mycobacterium tuberculosis variant bovis
M. africanum = assay: MIC screening against M. africanum; assay type: cell-based; details: Mycobacterium tuberculosis, MTBC
Mtb H37Rv [3] = assay type: in vivo, BALB/c mice; details: for bacterial burden per mouse, Fig. 5B: 10 mg/kg
[4] = p.o. 25 mg/kg, CD-1 mice
[5] = day 7 (values identical to Control: baseline)

## O=C1CCc2cc(N3CCN(C(=O)c4ccc(F)c(Br)c4)CC3)ccc21 [C21]
BioA
  IC50: 81 nM
BioA; C21 1.58114 nM
  activity: 106%
  activity at 0.00158114 µM: 106%
BioA; C21 5 nM
  activity: 98% and 96.4%
  activity at 0.005 µM: 102%
BioA; C21 15.8114 nM
  activity: 91.7% and 90.1%
  activity at 0.0158114 µM: 91.3%
BioA; C21 50 nM
  activity: 59.9% and 51.5%
  activity at 0.05 µM: 59.5%
BioA; C21 158.114 nM
  activity: 31.6% and 29.9%
  activity at 0.158114 µM: 32%
BioA; C21 500 nM
  activity: 25%
  activity at 0.5 µM: 25.1%
BioA; C21 1581.14 nM
  activity: 18.2% and 16.8%
  activity at 1.58114 µM: 19.4%
BioA; C21 5000 nM
  activity: 7.65% and 7.4%
  activity at 5 µM: 8.48%
In vivo
  Vd: 0.37 L/kg
  clearance: 5.3 mL/min/kg
  half-life: 49.2 min
  AUC(0-inf): 108000 ng·h/mL
  bioavailability: > 100%
Mtb H37Rv [1]
  MIC50: 1.9 µM (≈ 0.793 µg/mL)
  increase in potency against Mtb versus 6: 6 fold

## NNC(=O)c1ccncc1 [INH, isoniazid, reference compound]
Mtb H37Rv [2]; [5]
  bacterial burden per mouse, Fig. 5C: 360 and 1090 and 400 and 320 and 700 and 200
  bacterial burden per mouse, Fig. 5D (second organ, not given): 1
Mtb H37Rv [2]; day 21
  bacterial burden per mouse, Fig. 5D (second organ, not given): 1
Mtb H37Rv [2]; day 28
  bacterial burden per mouse, Fig. 5C: 1
  bacterial burden per mouse, Fig. 5D (second organ, not given): 1

## CC(=O)NC[C@H]1CN(c2ccc(N3CCOCC3)c(F)c2)C(=O)O1 [Linezolid, reference compound]
M. bovis 0AF2122
  MIC: 1.56 µM (≈ 0.526 µg/mL)
M. africanum
  MIC: 1.56 µM (≈ 0.526 µg/mL)

## CO[C@H]1/C=C/O[C@@]2(C)Oc3c(C)c(O)c4c(O)c(c(/C=N/N5CCN(C)CC5)c(O)c4c3C2=O)NC(=O)/C(C)=C\C=C\[C@H](C)[C@H](O)[C@@H](C)[C@@H](O)[C@@H](C)[C@H](OC(C)=O)[C@@H]1C [Rifampicin, rifampicin, reference compound]
Mtb H37Rv [3]; day 14 (values identical to Vehicle Control: baseline)
  bacterial burden per mouse, Fig. 5B: 24500 and 14500 and 16500 and 43500 and 12750
Mtb H37Rv [3]; day 28
  bacterial burden per mouse, Fig. 5B: 8250 and 7500 and 19750 and 6250 and 14250
Mtb H37Rv [3]; day 42
  bacterial burden per mouse, Fig. 5B: 2875 and 750 and 950 and 2450 and 2025
Mtb H37Rv [3]; Rifampicin 10mg/kg p.o., Day 42, standard acute model, BALB/c, per mouse
  spleen CFU: 0 CFU

## CC(=O)c1ccc(N2CCN(C(=O)c3ccc4c(c3)OCO4)CC2)cc1 [compound 6]
[4]; 0 h
  plasma concentration: 0
[4]; 3 h, 25 mg/kg
  plasma concentration: 32.3 and 18.2 and 24.6
[4]; 24 h
  plasma concentration: 1
BioA
  IC50: 110 nM
In vivo
  Vd: 0.54 L/kg
  clearance: 30.6 mL/min/kg
  half-life: 12 min
  AUC(0-inf): 460 ng·h/mL
  bioavailability: 3.4%
Mtb H37Rv [1]
  MIC50: 12 µM (≈ 4.23 µg/mL)
